Patent US12679839B2, “Cyclin-dependent kinase 7 (CDK7) non-covalent inhibitors” (JANSSEN PHARMACEUTICA NV, priority 2020, dated 2026)

Tests used:
[1] = target: T1, CDK7/Cyclin H/MAT-1 complex (Homo sapiens, UniProt P50613); test: Absorbance kinetic assay (20 nM CDK7/Cyclin H/MAT-1 complex); type: biochemical; details: for IC50: read-out: CDK7 (20 nM) pIC50 (converted)
T1 construct: Human CDK7 (amino acids 1-346); His6 (N); TEV protease cleavage site (N); made in house; host or cells: baculovirus-SF9 insect cells
T1 sequence (P50613 whole entry, the tested form may be a part): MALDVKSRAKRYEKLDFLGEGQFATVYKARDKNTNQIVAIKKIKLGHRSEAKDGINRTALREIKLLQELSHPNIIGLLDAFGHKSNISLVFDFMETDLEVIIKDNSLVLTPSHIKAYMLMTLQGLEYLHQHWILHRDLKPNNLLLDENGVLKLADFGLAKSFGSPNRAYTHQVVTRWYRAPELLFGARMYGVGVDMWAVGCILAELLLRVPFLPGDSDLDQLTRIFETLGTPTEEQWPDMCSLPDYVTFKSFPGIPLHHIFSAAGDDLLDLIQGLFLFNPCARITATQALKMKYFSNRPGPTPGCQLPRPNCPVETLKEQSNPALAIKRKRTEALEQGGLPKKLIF
T1 sequence (P51946 whole entry partner, the tested form may be a part): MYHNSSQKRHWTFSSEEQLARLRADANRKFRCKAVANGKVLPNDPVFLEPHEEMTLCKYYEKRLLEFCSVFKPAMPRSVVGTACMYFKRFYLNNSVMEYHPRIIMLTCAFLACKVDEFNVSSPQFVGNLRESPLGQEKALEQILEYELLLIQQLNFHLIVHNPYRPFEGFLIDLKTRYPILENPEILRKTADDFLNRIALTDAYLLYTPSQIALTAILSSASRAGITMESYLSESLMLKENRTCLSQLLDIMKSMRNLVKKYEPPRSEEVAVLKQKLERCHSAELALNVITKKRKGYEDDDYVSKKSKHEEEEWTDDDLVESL
T1 sequence (P51948 whole entry partner, the tested form may be a part): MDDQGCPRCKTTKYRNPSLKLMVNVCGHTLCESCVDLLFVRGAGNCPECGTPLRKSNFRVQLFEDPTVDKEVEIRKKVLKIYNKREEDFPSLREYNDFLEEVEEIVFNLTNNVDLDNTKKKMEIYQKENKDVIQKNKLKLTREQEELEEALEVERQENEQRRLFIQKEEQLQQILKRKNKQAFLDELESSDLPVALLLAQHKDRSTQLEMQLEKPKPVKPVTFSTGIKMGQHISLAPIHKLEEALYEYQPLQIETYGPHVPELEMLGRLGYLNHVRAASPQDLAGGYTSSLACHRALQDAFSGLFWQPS
Summary of the method: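 Trimeric complex (His6-TEV CDK7 1-346, MAT1 1-309, cyclin H 1-323) from Sf9 cells, at 20 nM, phosphorylating RNA Pol II-derived CDK7/9-tide; ADP coupled via PK/LDH to NADH depletion read at 340 nm every 2 min for 8 h. Steady-state slopes gave % inhibition; IC50 from 11-point Hill fit.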

[2] = target: T1, CDK7/Cyclin H/MAT-1 complex; test: Flint assay, end-point fluorescence (5 nM CDK7/Cyclin H/MAT-1 complex); type: biochemical; details: for IC50: read-out: CDK7 (5 nM) pIC50 (converted)
Description: Human CDK7 (amino acids 1-346) containing an N-terminal His6-tag followed by a tobacco etch virus (TEV) protease cleavage site, human MAT1 (amino acids 1-309) and human cyclin H (amino acids 1-323) were co-expressed in the baculovirus-SF9 insect cell expression system to generate a trimeric complex. Cell pellets were collected 72 h post-infection and were resuspended by Dounce homogenization in 20 mM Hepes-NaOH (pH 8.0), 300 mM NaCl, 10% glycerol, 2 mM dithiothreitol DTT), and 20 mM Imidazole supplemented with cOmplete™ Protease Inhibitor Cocktail (Roche) and 25 U/mL Benzonase® Nuclease HC according to the manufacturer's instructions. Cells were lysed by passing through a Microfluidics M110Y Microfluidizer 3 times at 600 kPa followed by centrifugation at 38,000×g at 4° C. for 1 hour. The supernatant was loaded onto a pre-equilibrated HisTrap HP column and eluted in 20 mM Hepes-NaOH (pH 8.0), 50 mM NaCl, 10% glycerol, 2 mM DTT, and 400 mM Imidazole. The eluate was further purified by gel filtration on a Superdex S200 16/60 column and eluted with 20 mM Hepes-NaOH (pH 7.5), 50 mM NaCl, 10% Glycerol, 2 mM DTT. Fractions containing a trimeric complex of CDK7, cyclin H, and MAT1 in a 1:1:1 ratio were pooled and concentrated to 3 mg/mL in a 10 kDa MWCO concentrator, and diluted to a final concentration of 1.6 mg/mL in 11.1 mM Hepes-NaOH (pH 8.0), 27.8 mM NaCl, 1.1 mM DTT and 50% glycerol.
Compounds with potencies approaching the limit of detection of the assay (IC50≤10 nM) were further assessed in a more sensitive fluorescence end-point assay.
[formula] where νo is the rate in the absence of inhibitor, νmin is the rate at highest inhibitor concentration, and h is the Hill coefficient. Flint Assay (5 nM CDK7/Cyclin H/MAT-1 Complex)
The continuous absorbance assay was converted to an end-point fluorescence assay following the NADH fluorescence signal decrease at the excitation and emission wavelengths of 340 nm and 440 nm, respectively.
Under the same concentrations of substrates and coupling reagents used in the absorbance assay, the fluorescence assay was performed at a reduced concentration of the CDK7/Cyclin H/MAT-1 complex of 5 nM (final concentration) with a reaction time of 24 hours. The percent of inhibition was calculated by the following equation. Percent of inhibition=(Sample−NC)/(PC−NC)*100 where NC is the mean if negative control (reaction without inhibitor), and PC is the mean of positive control (reaction with complete inhibition).
Dosing curves were fitted using the following equation to obtain IC50: Y=Bottom+(Top−Bottom)/(1+10^((log IC50−X)*Hill slope)) where X=log10 of the compound concentration; top and bottom can be defined by PC and NC respectively. Imaging-Based Cellular RNA PolII Ser5 Phosphorylation Assay

Row | SMILES | CDK7 (20 nM) pIC50 [1] | CDK7 (5 nM) pIC50 [2] | IC50 [1] [nM] | IC50 [2] [nM]
1 | C[C@@H]1Cc2cnc(N[C@H]3CC[C@H](C)CC3)nc2CN1C(=O)[C@H]1CCN(C)C[C@@H]1c1ccccc1 [Compound 13] | 8.01 | 8.85 | – | –
2 | C[C@@H]1Cc2cnc(N[C@H]3CC[C@H](O)CC3)nc2CN1C(=O)[C@H]1CCN(C)C[C@@H]1c1ccccc1 [Compound 12] | >8.01 | 8.49 | – | –
3 | Cc1ccc([C@@H]2CN(C)CC[C@H]2C(=O)N2Cc3nc(NC4CCOCC4)ncc3C[C@H]2C)cn1 (relative stereo) [Compound 108] | – | – | 105 | 19.5
4 | C[C@H]1Cc2cnc(NC3CCOCC3)nc2CN1C(=O)N1CCN(C)C[C@H]1c1cccc(F)c1 (relative stereo) [Compound 212] | – | – | 13.2 | 4.79
5 | C[C@@H]1Cc2cnc(NC3CCN(S(=O)(=O)C4CC4)CC3)nc2CN1C(=O)N1CCN(C)C[C@@H]1c1ccccc1 [Compound 210] | >7.7 | 8.48 | – | –
6 | C[C@@H]1Cc2cnc(N[C@@H]3CCOC4(CCC4)C3)nc2CN1C(=O)[C@H]1CCN(C)C[C@@H]1c1ccccc1 (relative stereo) [Compound 8] | – | – | < 9.77 | 2.69
7 | C[C@@H]1Cc2cnc(NC3CCOCC3)nc2CN1C(=O)[C@H]1CCN(C)C[C@@H]1c1ccccc1 [Compound 47] | >7.7 | 8.3 | – | –
8 | CO[C@H]1CC[C@H](Nc2cc3c(cn2)C[C@H](C)N(C(=O)[C@H]2CCN(C)C[C@@H]2c2cccc(C)c2)C3)CC1 [Compound 177c] | – | – | 389 | 22.4
9 | Cc1cccc([C@H]2CN(C)CC[C@@H]2C(=O)N2Cc3nc(Nc4cnn(C)c4)ncc3[C@@H]3C[C@@H]32)c1 (relative stereo) [Compound 203] | – | – | 17 | 5.37
10 | CC(C)N1CCN(C(=O)N2Cc3nc(NC4CCOCC4)ncc3C[C@H]2C)[C@@H](c2ccccc2)C1 [Compound 206] | 7.79 | 8.19 | – | –
11 | C[C@@H]1Cc2cnc(NC3CCS(=O)(=O)CC3)nc2CN1C(=O)[C@H]1CCN(C)C[C@@H]1c1ccccc1 [Compound 44] | >7.7 | 8.04 | – | –
12 | CO[C@H]1CC[C@H](Nc2ncc3c(n2)CN(C(=O)[C@H]2CCN(C)C[C@@H]2c2ccccc2)[C@H](C)C3)CC1 [Compound 37] | 8.01 | 8.6 | – | –
13 | C[C@@H]1Cc2cnc(NC3CCN(CC(F)(F)F)CC3)nc2CN1C(=O)[C@H]1CCN(C)C[C@@H]1c1ccccc1 [Compound 45] | 7.62 | 7.65 | – | –
14 | C[C@@H]1Cc2cnc(NCC3CCS(=O)(=O)C3)nc2CN1C(=O)[C@H]1CCN(C)C[C@@H]1c1ccccc1 (stereo partly drawn) [Compound 49] | 6.62 | 7.2 | – | –
15 | CN1CC[C@H](C(=O)N2Cc3nc(Nc4cnn(C)c4)ncc3[C@@H]3C[C@@H]32)[C@@H](c2ccccc2)C1 [Compound 200] | 7.46 | 7.77 | – | –
16 | C[C@@H]1Cc2cnc(NC3CCC(OCC4CC4)CC3)nc2CN1C(=O)[C@H]1CCN(C)C[C@@H]1c1ccccc1 (stereo partly drawn) [Compound 3] | >8.01 | 8.3 | – | –
17 | Cc1cccc([C@H]2CN(C(C)C)CC[C@@H]2C(=O)N2Cc3nc(NC4CCOCC4)ncc3C[C@H]2C)c1 [Compound 166] | 7.74 | 7.85 | – | –
18 | CO[C@H]1CC[C@H](Nc2ncc3c(n2)CN(C(=O)[C@H]2CCN(C)C[C@@H]2c2ccccc2)C2(CC2)C3)CC1 [Compound 192] | 6.80 | 6.84 | – | –
19 | C[C@@H]1Cc2cnc(N[C@H]3CCOC4(CCC4)C3)nc2CN1C(=O)[C@H]1CCN(C)C[C@@H]1c1ccccc1 (relative stereo) [Compound 9] | – | – | < 9.77 | 6.17
20 | C[C@@H]1Cc2cnc(NC3CCN(S(=O)(=O)N(C)C)CC3)nc2CN1C(=O)N1CCN(C)C[C@@H]1c1ccccc1 [Compound 211] | >7.7 | 7.88 | – | –
21 | C[C@@H]1Cc2cnc(NC3CCOCC3)nc2CN1C(=O)N1CCN(C)C[C@@H]1c1ccccc1 [Compound 204a] | 7.81 | 8.17 | – | –
22 | C[C@@H]1Cc2cnc(NCc3ccccc3)nc2CN1C(=O)[C@H]1CCN(CC2COC2)C[C@@H]1c1ccccc1 (single isomer, unassigned) [Compound 155] | >8.01 | 8.2 | – | –

Further lines, results first:

Row | CDK7 (20 nM) pIC50 [1] | CDK7 (5 nM) pIC50 [2] | IC50 [1] [nM] | IC50 [2] [nM] | SMILES
23 | >8.01 | 8.54 | – | – | C[C@@H]1Cc2cnc(N[C@@H](CO)c3ccccc3)nc2CN1C(=O)[C@H]1CCN(C)C[C@@H]1c1ccccc1 [Compound 71]
24 | – | – | 11.2 | 2.63 | C[C@H]1Cc2cnc(NCc3ccn(C)n3)cc2CN1C(=O)[C@H]1CCN(C)C[C@@H]1c1ccccc1 (relative stereo) [Compound 174]
25 | >8.01 | 8.67 | – | – | C[C@@H]1Cc2cnc(Nc3cnn(C)c3)nc2CN1C(=O)[C@H]1CCN(C)C[C@@H]1c1ccccc1 [Compound 82]
26 | – | – | 22.9 | 9.12 | C[C@H]1Cc2cnc(Nc3cnn(C)c3)cc2CN1C(=O)[C@H]1CCN(C)C[C@@H]1c1ccccc1 (relative stereo) [Compound 176]
27 | – | – | 141 | 38.9 | C[C@H](Nc1ncc2c(n1)CN(C(=O)[C@H]1CCN(C)C[C@@H]1c1ccccc1)[C@H](C)C2)c1ccn(C)n1 (single isomer, unassigned) [Compound 55]
28 | 7.58 | 7.33 | – | – | Cc1cc(CNc2ncc3c(n2)CN(C(=O)[C@H]2CCN(C)C[C@@H]2c2ccccc2)[C@H](C)C3)nn1C [Compound 65]
29 | 7.97 | 7.9 | – | – | Cc1ncc(CNc2ncc3c(n2)CN(C(=O)[C@H]2CCN(C)C[C@@H]2c2ccccc2)[C@H](C)C3)[nH]1 [Compound 52]
30 | 6.53 | 7.41 | – | – | CN1CC[C@H](C(=O)N2Cc3nc(NCc4ccn(C)n4)ncc3CC2(C)C)[C@@H](c2ccccc2)C1 (single isomer, unassigned) [Compound 191]
31 | 7.43 | 7.57 | – | – | C[C@@H]1Cc2cnc(NC(C)(C)c3cnn(C)c3)nc2CN1C(=O)[C@H]1CCN(C)C[C@@H]1c1ccccc1 [Compound 90]
32 | – | – | < 9.77 | 1.78 | [2H]C([2H])(Nc1ncc2c(n1)CN(C(=O)[C@H]1CCN(C)C[C@@H]1c1ccccc1)[C@H](C)C2)c1ccccc1 [Compound 70]
33 | >8.01 | 7.97 | – | – | Cc1cn(C)nc1CNc1ncc2c(n1)CN(C(=O)[C@H]1CCN(C)C[C@@H]1c1ccccc1)[C@H](C)C2 [Compound 61]
34 | 7.72 | 8.0 | – | – | C[C@@H]1Cc2cnc(Nc3cnn(CC(C)(C)O)c3)nc2CN1C(=O)[C@H]1CCN(C)C[C@@H]1c1ccccc1 [Compound 74]
35 | – | – | 11 | 7.24 | C[C@@H]1Cc2cnc(N[C@@H]3CCOC(C)(C)C3)nc2CN1C(=O)[C@H]1CCN(C)C[C@@H]1c1ccccc1 (relative stereo) [Compound 40]
36 | 8.01 | 8.55 | – | – | C[C@@H]1Cc2cnc(NC3Cc4ccccc4C3)nc2CN1C(=O)[C@H]1CCN(C)C[C@@H]1c1ccccc1 [Compound 29]
